In US20260365663A1, “EMOPAMIL-BINDING PROTEIN INHIBITORS AND USES THEREOF” (BIOGEN MA INC., priority 2022, published 2026):

target: T1, EBP (Homo sapiens, UniProt Q15125); test: EBP Functional Assay (EBP immunoaffinity LC-MS assay); format: biochemical; conditions: not given
T1 construct: HEK293T cells were utilized as the source of EBP enzyme; endogenous in cells; host or cells: HEK293T
Method: The EBP immunoaffinity (IA) LC-MS assay measures the potency of small molecule inhibitors of EBP by quantifying their concentration-dependent changes in the enzyme's substrate and product using liquid chromatography atmospheric pressure chemical ionization multiple reaction monitoring mass spectrometry (LC-APCI MRM MS). HEK293T cells were utilized as the source of EBP enzyme. The enzyme was incubated with the small molecule inhibitors at variable concentrations for 30 min. Deuterated form of EBP substrate, zymosterol-d5 (Avanti Polar Lipids, Cat #700068P-1 mg), was then added and the plate was incubated at 37 °C for 4 h. Finally, the sterol isomers were extracted and injected to LC-APCI MRM MS. MRM transition used for the quantification for both zymosterol and dihydrolathosterol (substrate and product of EBP enzymatic reaction, respectively) is 372.3-203.2, CE 30 and DP 80 in positive ion mode. Percent conversion of the zymosterol-d5 to dehydrolathosterol-d5 was used to derive IC50 curves. Tasin-1 (1′-[(4-Methoxyphenyl)sulfonyl]-4-methyl-1,4′-bipiperidine, CAS 792927-06-1) was used as the reference small molecule inhibitor.
Percent conversion versus the compound concentration data were fit to the following 4-parameter logistic model to generate IC50 curves: […]

T1 sequence (Q15125 whole entry): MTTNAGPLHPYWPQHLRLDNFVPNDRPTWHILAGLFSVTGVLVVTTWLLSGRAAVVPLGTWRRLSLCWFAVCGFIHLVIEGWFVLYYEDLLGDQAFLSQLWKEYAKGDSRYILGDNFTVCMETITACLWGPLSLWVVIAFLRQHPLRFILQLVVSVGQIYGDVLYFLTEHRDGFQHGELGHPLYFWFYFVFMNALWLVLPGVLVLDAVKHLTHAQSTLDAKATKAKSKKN

First: Cc1cc(S(=O)(=O)N2CC3(CCC(N4CCOCC4)C3)C2)n(C)n1 (stereo not drawn) [Example 36, 4-(2-((1,3-Dimethyl-1H-pyrazol-5-yl)sulfonyl)-2-azaspiro[3.4]octan-6-yl)morpholine]
Second: Cc1ccc(S(=O)(=O)N2CC3(CCC(N4CCOCC4)C3)C2)c(C)c1 (stereo not drawn) [Example 45, 4-(2-((2,4-Dimethylphenyl)sulfonyl)-2-azaspiro[3.4]octan-6-yl)morpholine]
The IC50 of the first is higher: 100 to 500 nM for the first, < 100 nM for the second.

`Cn1nc(C(F)(F)F)cc1S(=O)(=O)N1CC2(CC(N3CC4(COC4)C3)C2)C1` [Example 14, 6-(2-((1-Methyl-3-(trifluoromethyl)-1H-pyrazol-5-yl)sulfonyl)-2-azaspiro[3.3]heptan-6-yl)-2-oxa-6-azaspiro[3.3]heptane] and `Cc1nc(C(F)(F)F)ccc1S(=O)(=O)N1CC2(CC(N3CC4(CCO4)C3)C2)C1` [Example 6, 6-(2-((2-Methyl-6-(trifluoromethyl)pyridin-3-yl)sulfonyl)-2-azaspiro[3.3]heptan-6-yl)-1-oxa-6-azaspiro[3.3]heptane] fall in the same range of IC50: 500 to 3000 nM for the first, 500 to 3000 nM for the second.

`O=S(=O)(c1ccc(F)cc1F)N1CC2(CCC(N3CCOCC3)C2)C1` (stereo not drawn) [Example 46, 4-(2-((2,4-Difluorophenyl)sulfonyl)-2-azaspiro[3.4]octan-6-yl)morpholine] gave an IC50 of 500 to 3000 nM.

same assay, conditions: HEK293T cells as source of EBP enzyme; zymosterol-d5 substrate; inhibitor 30 min, then 37 °C for 4 h; percent conversion to dehydrolathosterol-d5 by LC-APCI MRM MS; read-out: EBP Functional Assay

`Cc1nc(C(C)(F)F)ccc1S(=O)(=O)N1CC2(CC(N(C)C3CCOCC3)C2)C1` [Example 72, 2-((6-(1,1-difluoroethyl)-2-methylpyridin-3-yl)sulfonyl)-N-methyl-N-(tetrahydro-2H-pyran-4-yl)-2-azaspiro[3.3]heptan-6-amine] and `Cc1nc(C(C)(F)F)ccc1S(=O)(=O)N1CC2(CC(NC3CCOCC3)C2)C1` [Example 2, 2-((6-(1,1-Difluoroethyl)-2-methylpyridin-3-yl)sulfonyl)-N-(tetrahydro-2H-pyran-4-yl)-2-azaspiro[3.3]heptan-6-amine] cannot be ordered by IC50: < 100 nM for the first, < 100 nM for the second.

Compared with `Cn1nc(C(F)(F)F)cc1S(=O)(=O)N1CC2(CC(NCC3(C)COC3)C2)C1` [Example 12, 2-((1-Methyl-3-(trifluoromethyl)-1H-pyrazol-5-yl)sulfonyl)-N-((3-methyloxetan-3-yl)methyl)-2-azaspiro[3.3]heptan-6-amine], `Cc1nc(C(F)(F)F)ccc1S(=O)(=O)N1CC2(CC(NC3(C4CCOCC4)CC3)C2)C1` [Example 7, 2-((2-Methyl-6-(trifluoromethyl)pyridin-3-yl)sulfonyl)-N-(1-(tetrahydro-2H-pyran-4-yl)cyclopropyl)-2-azaspiro[3.3]heptan-6-amine] is higher in IC50: < 100 nM for the first, 100 to 500 nM for the second. The first is the more potent here.

Compared with `Cc1nc(C(F)(F)F)ccc1S(=O)(=O)N1CC2(CC[C@@H](N3CCOCC3)C2)C1` (single isomer, unassigned) [Example 60], `Cc1nc(Cl)ccc1S(=O)(=O)N1CC2(CC[C@H](N3CCOCC3)C2)C1` (single isomer, unassigned) [Example 65] is higher in IC50: < 100 nM for the first, 100 to 500 nM for the second. The first is the more potent here.

Compared with `COc1ncc(C)cc1S(=O)(=O)N1CC2(CC(N3CC(OC)C3)CO2)C1` (stereo not drawn) [Example 23, 2-((2-Methoxy-5-methylpyridin-3-yl)sulfonyl)-7-(3-methoxyazetidin-1-yl)-5-oxa-2-azaspiro[3.4]octane], `COc1ncc(C)cc1S(=O)(=O)N1CC2(CC(NC3CCC(F)(F)CC3)CO2)C1` (stereo not drawn) [Example 24, N-(4,4-Difluorocyclohexyl)-2-((2-methoxy-5-methylpyridin-3-yl)sulfonyl)-5-oxa-2-azaspiro[3.4]octan-7-amine] is lower in IC50: 500 to 3000 nM for the first, 100 to 500 nM for the second.

Compared with `Cc1nc(C(F)(F)F)ncc1S(=O)(=O)N1CC2(CC(N(C)CC3CCOCC3)C2)C1` [Example 83, N-methyl-2-((4-methyl-2-(trifluoromethyl)pyrimidin-5-yl)sulfonyl)-N-((tetrahydro-2H-pyran-4-yl)methyl)-2-azaspiro[3.3]heptan-6-amine], `CN(C1CCC(F)(F)CC1)C1COC2(C1)CN(S(=O)(=O)c1cc(C#N)ccc1F)C2` (stereo not drawn) [Example 59, 3-((7-((4,4-Difluorocyclohexyl)(methyl)amino)-5-oxa-2-azaspiro[3.4]octan-2-yl)sulfonyl)-4-fluorobenzonitrile] is lower in IC50: 100 to 500 nM for the first, < 100 nM for the second.
